Assay results from US7888380B2, “1,2,4-Triazolylaminoaryl (heteroaryl) sulfonamide derivatives” (Janssen Pharmaceutica, N.V., priority 2004, dated 2011).
Read-outs that look alike come from different tables or passages of the source.

Experiments:
CDK1:Cyclin-B = target: T1, CDK1:Cyclin-B (Homo sapiens, UniProt P06493); assay: CDK1 Screening Assay (33P-ATP FlashPlate); assay type: biochemical; settings: 10 μM ATP; >10 or >100 = less than 50% inhibition at highest concentration tested
T1 construct: purchased New England Biolabs, Beverly, Mass; 6020; host or cells: insect cells
T1 sequence (P06493 whole entry): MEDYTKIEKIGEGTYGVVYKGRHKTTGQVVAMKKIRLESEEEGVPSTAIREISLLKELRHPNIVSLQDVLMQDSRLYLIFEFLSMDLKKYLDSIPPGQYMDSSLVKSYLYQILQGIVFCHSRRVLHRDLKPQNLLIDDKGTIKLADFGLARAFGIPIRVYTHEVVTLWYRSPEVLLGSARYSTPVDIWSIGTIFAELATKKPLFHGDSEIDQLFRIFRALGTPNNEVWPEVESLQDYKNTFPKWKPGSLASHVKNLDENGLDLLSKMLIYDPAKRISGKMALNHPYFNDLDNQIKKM
T1 sequence (P14635 whole entry partner): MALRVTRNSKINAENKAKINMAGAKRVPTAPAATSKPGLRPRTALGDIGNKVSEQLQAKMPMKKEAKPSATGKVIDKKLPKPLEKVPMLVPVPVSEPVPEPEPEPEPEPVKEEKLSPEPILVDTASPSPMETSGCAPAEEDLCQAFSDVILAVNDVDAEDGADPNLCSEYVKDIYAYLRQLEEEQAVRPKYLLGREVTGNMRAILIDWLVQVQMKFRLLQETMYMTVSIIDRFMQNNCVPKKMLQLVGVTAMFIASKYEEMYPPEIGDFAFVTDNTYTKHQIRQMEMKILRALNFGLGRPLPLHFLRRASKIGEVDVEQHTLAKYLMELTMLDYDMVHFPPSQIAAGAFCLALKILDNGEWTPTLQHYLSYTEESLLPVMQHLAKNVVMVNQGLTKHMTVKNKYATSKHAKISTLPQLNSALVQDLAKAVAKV
Protocol: A kinase reaction mixture was prepared containing 50 mM Tris-HCl pH=8, 10 mM MgCl2, 0.1 mM Na3PO4, 1 mM DTT, 10 μM ATP, 0.025 μM biotinylated histone-H1 peptide substrate and 0.2 μCuries per well ^33P-γ-ATP (2000-3000 Ci/mmol). 70 μL of the kinase reaction mixture was dispensed into each well of a streptavidin coated FlashPlate™ (Cat. # SMP103, NEN, Boston, Mass.). Then 1 μL of test compound stock in 100% DMSO was added to the wells resulting in a final concentration of 1% DMSO in the reaction with a 100 μl final reaction volume.
Next, CDK1:Cyclin-B protein was diluted in 50 mM Tris-HCl pH=8.0, 0.1% BSA at a concentration of 1 ng per μL and 30 μL (30 ng enzyme per test well) was added to each well to initiate the reaction. The reaction was incubated for one hour at 30° C. At the end of the 1 h incubation, the reaction was terminated by aspirating the mixture from the plate and washing the wells twice with PBS containing 100 mM EDTA. The histone-H1 biotinylated peptide substrate became immobilized on the Flashplate™ and the incorporation of ^33P-γ-ATP was measured by reading the plate on a scintillation counter. Inhibition of the enzymatic activity of CDK1 was measured by observing a reduced amount of ^33P-γ-ATP incorporated into the immobilized peptide.
(§1) VEGF-R (vascular endothelial growth factor receptor-2) is a fusion protein containing a polyhistidine tag at the N-terminus followed by amino acids 786-1343 of the rat VEGF-R2 kinase domain (GenBank Accession #U93306). CDK1 (cyclin dependent kinase 1) was isolated from insect cells expressing both the human CDK1 catalytic subunit and its positive regulatory subunit cyclin B (New England Biolabs, Beverly, Mass., Cat. # 6020). CDK2 in complex with cyclin A is commercially available (Upstate Biotech, Lake Placid, N.Y.). The HER2 (human epidermal growth factor receptor-2) construct contains a polyhistidine tag at the N-terminus followed by 24 additional amino acids and begins at amino acid 676 followed by the remainder of the HER2 cytoplasmic domain.

VEGF-R2 kinase = target: T2, VEGF-R2 kinase (Rattus norvegicus, UniProt O08775); assay: VEGF-R2 Kinase Screening Assay; assay type: biochemical; settings: 10 μM ATP; rat VEGF-R2 kinase domain; read-out: IC50 (μM) VEGFR
T2 construct: 6xHis (polyhistidine) (N)
T2 sequence (O08775 786-1343): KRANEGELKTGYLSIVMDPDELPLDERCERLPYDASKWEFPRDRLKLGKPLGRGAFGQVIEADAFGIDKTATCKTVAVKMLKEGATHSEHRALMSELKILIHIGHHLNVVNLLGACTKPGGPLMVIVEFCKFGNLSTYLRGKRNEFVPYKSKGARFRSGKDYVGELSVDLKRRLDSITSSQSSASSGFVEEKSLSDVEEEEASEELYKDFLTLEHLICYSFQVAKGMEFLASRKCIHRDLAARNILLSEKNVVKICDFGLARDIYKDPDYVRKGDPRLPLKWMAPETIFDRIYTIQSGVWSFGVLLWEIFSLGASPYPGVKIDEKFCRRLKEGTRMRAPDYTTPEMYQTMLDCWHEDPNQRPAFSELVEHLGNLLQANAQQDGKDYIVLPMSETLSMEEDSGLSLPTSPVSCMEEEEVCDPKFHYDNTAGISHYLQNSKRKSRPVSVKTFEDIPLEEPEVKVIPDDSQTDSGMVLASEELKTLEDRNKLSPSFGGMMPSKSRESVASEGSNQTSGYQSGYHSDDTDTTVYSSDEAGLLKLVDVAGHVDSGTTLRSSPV
Protocol: A kinase reaction mixture was prepared containing 50 mM Tris-HCl pH=8, 10 mM MgCl2, 0.1 mM Na3PO4, 1 mM DTT, 10 μM ATP, 0.025 μM biotinylated peptide substrate and 0.8 μCuries per well ^33P-γ-ATP (2000-3000 Ci/mmol). 70 μL of the kinase reaction mixture was dispensed into each well of a streptavidin coated FlashPlate™ (Cat. # SMP103, NEN, Boston, Mass.). Then 1 μL of test compound stock in 100% DMSO was added to the wells resulting in a final concentration of 1% DMSO in the reaction with a 100 μL final reaction volume. Next, soluble rat tyrosine kinase containing an N-terminal 6×HIS tag was diluted in 50 mM Tris-HCl pH=8.0, 0.1% BSA at a concentration of 5 ng per μL and 30 μL (150 ng enzyme per test well) was added to each well to initiate the reaction. The reaction was incubated for one hour at 30° C. At the end of the 1 h incubation, the reaction was terminated by aspirating the reaction mixture from the plate and washing the wells twice with PBS containing 100 mM EDTA. The PLC1 biotinylated peptide substrate became immobilized on the Flashplate™ and the incorporation of ^33P-γ-ATP was measured by reading the plate on a scintillation counter. Inhibition of the enzymatic activity of the VEGF-R2 kinase was measured by observing a reduced amount of ^33P-γ-ATP incorporated into the immobilized peptide.
as §1

CDK2:Cyclin-E = CDK2:Cyclin-E (Homo sapiens, UniProt P24941); assay: CDK2 Screening Assay (33P-ATP FlashPlate); assay type: biochemical; settings: 10 μM ATP; >10 or >100 = less than 50% inhibition at highest concentration tested
Protocol: A kinase reaction mixture was prepared containing 50 mM Tris-HCl pH=8, 10 mM MgCl2, 0.1 mM Na3PO4, 1 mM DTT, 10 μM ATP, 0.025 μM biotinylated histone-H1 peptide substrate and 0.2 μCuries per well ^33P-γ-ATP (2000-3000 Ci/mmol). 70 μL of the kinase reaction mixture was dispensed into the well of a streptavidin coated FlashPlate™ (Cat. # SMP103, NEN, Boston, Mass.). Then 1 μL of test compound stock in 100% DMSO was added to the wells resulting in a final concentration of 1% DMSO in the reaction with a 100 μl final reaction volume. Next, CDK2:Cyclin-E protein was diluted in 50 mM Tris-HCl pH=8.0, 0.1% BSA at a concentration of 1 ng per μL and 30 μL (30 ng enzyme per test well) was added to each well to initiate the reaction. The reaction was incubated for one hour at 30° C. At the end of the 1 h incubation, the reaction was terminated by aspirating the mixture from the plate and washing the wells twice with PBS containing 100 mM EDTA. The histone-H1 biotinylated peptide substrate became immobilized on the Flashplate™ and the incorporation of ^33P-γ-ATP was measured by reading the plate on a scintillation counter. Inhibition of the enzymatic activity of CDK2 was measured by observing a reduced amount of ^33P-γ-ATP incorporated into the immobilized peptide. […]

[1] = Standard Rat Pharmacokinetics (PK); assay type: in vivo; settings: for Cmax: rat plasma; for bioavailability: plasma
Protocol: The conversion of prodrug to active form was evaluated using a standard rat PK protocol. The following procedure may be followed.
Rats were dosed intravenously (IV) at the level of 1.5-3 mg/kg and by oral gavage (PO) at the level of 10-30 mg/kg with prodrug candidate. For each study, four rats were used for IV dosing and four rats were used for PO dosing. Prodrug was typically formulated for IV dosing as a solution in 10% W/V solutol in 5% dextrose in sterile water vehicle (D5W). Prodrug was typically formulated for oral dosing as a uniform suspension in 0.5% methylcellulose vehicle. Blood samples (0.5 mL) were collected into heparinized tubes post dose via orbital sinus puncture. For IV dosing, blood samples were collected at 5, 15 and 30 mins, 1, 2, 4, 6, 8, and 24 hrs after the dosing. For PO dosing, blood samples were collected at 30 mins, 1, 2, 4, 6, 8 and 24 hrs. Blood samples were centrifuged for cell removal, and precisely 200 μL of plasma supernatant was then transferred to a clean vial, placed on dry ice, and subsequently stored in a −70° C. freezer prior to analysis. Results were calculated by WinNonlin Pro version 3.1. Plasma levels were determined and the oral and intravenous area under the concentration vs. time curve (AUC) were compared to determine the % bioavailability (% F) by the following formula: Dose(IV)*AUC(oral)/Dose (oral)*AUC(IV).

[2] = IV 3 mg/kg of prodrug, read-out: Prodrug Cmax (μM) IV
[3] = PO 30 mg/kg of prodrug, read-out: Prodrug Cmax (μM) PO
[4] = rat, IV/PO 3/30 mg/kg, Dose(IV)*AUC(oral)/Dose(oral)*AUC(IV)
[5] = rat, IV/PO 2/10 mg/kg, Dose(IV)*AUC(oral)/Dose(oral)*AUC(IV)

Row | Molecule | IC50 (CDK1:Cyclin-B) | IC50 (VEGF-R2 kinase) | IC50 (CDK2:Cyclin-E) | Cmax [1, 2] | Cmax [1, 3] | bioavailability [1, 4] | bioavailability ([1]; rat, IV/PO 1.5/15 mg/kg, Dose(IV)*AUC(oral)/Dose(oral)*AUC(IV)) | Cmax ([1]; IV 1.5 mg/kg of prodrug, read-out: Prodrug Cmax (μM) IV) | bioavailability ([1]; rat, IV/PO 1.7/17 mg/kg, Dose(IV)*AUC(oral)/Dose(oral)*AUC(IV)) | Cmax ([1]; IV 1.7 mg/kg of prodrug, read-out: Prodrug Cmax (μM) IV) | bioavailability [1, 5] | Cmax ([1]; IV 2 mg/kg of prodrug, read-out: Prodrug Cmax (μM) IV) | % F [1, 4]
1 | 4-[5-amino-1-(2,6-difluoro-benzoyl)-1H-[1,2,4]triazol-3-ylamino]-N-propionyl-benzenesulfonamide [Compound 20] | 1.82 µM | 1 µM | 0.28 µM | 33.5 µM | 0.02 µM | – | – | – | – | – | – | – | 0.34%
2 | Nc1nc(Nc2ccc(S(=O)(=O)NC(=O)CCC(=O)O)cc2)nn1C(=O)c1c(F)cccc1F [Compound 1, 4-{4-[5-amino-1-(2,6-difluoro-benzoyl)-1H-[1,2,4]triazol-3-ylamino]-benzenesulfonylamino}-4-oxo-butyric acid] | 0.49 µM | 1.66 µM | 0.07 µM | 47 µM | 0.36 µM | 1% | – | – | – | – | – | – | –
3 | NCC(=O)NS(=O)(=O)c1ccc(Nc2nc(N)n(C(=O)c3c(F)cccc3F)n2)cc1 [Compound 2, N-(2-amino-acetyl)-4-[5-amino-1-(2,6-difluoro-benzoyl)-1H-[1,2,4]triazol-3-ylamino]-benzenesulfonamide] | 1.07 µM | 1.97 µM | 0.12 µM | – | – | – | 0% | 11.8 µM | – | – | – | – | –
4 | COCCOCC(=O)NS(=O)(=O)c1ccc(Nc2nc(N)n(C(=O)c3c(F)cccc3F)n2)cc1 [Compound 3, 4-[5-amino-1-(2,6-difluoro-benzoyl)-1H-[1,2,4]triazol-3-ylamino]-N-[2-(2-methoxy-ethoxy)-acetyl]-benzenesulfonamide] | 1.66 µM | 2.56 µM | 0.25 µM | 42.9 µM | 0.32 µM | 2% | – | – | – | – | – | – | –
5 | Nc1nc(Nc2ccc(S(=O)(=O)NC(=O)Cn3cnnn3)cc2)nn1C(=O)c1c(F)cccc1F [Compound 4, 4-[5-amino-1-(2,6-difluoro-benzoyl)-1H-[1,2,4]triazol-3-ylamino]-N-(2-tetrazol-1-yl-acetyl)-benzenesulfonamide] | 5.39 µM | 2.34 µM | 0.43 µM | 23.5 µM | – | 0% | – | – | – | – | – | – | –

More lines, main results first:

Row | IC50 (CDK1:Cyclin-B) | IC50 (VEGF-R2 kinase) | IC50 (CDK2:Cyclin-E) | Cmax [1, 2] | Cmax [1, 3] | bioavailability [1, 4] | bioavailability ([1]; rat, IV/PO 1.5/15 mg/kg, Dose(IV)*AUC(oral)/Dose(oral)*AUC(IV)) | Cmax ([1]; IV 1.5 mg/kg of prodrug, read-out: Prodrug Cmax (μM) IV) | bioavailability ([1]; rat, IV/PO 1.7/17 mg/kg, Dose(IV)*AUC(oral)/Dose(oral)*AUC(IV)) | Cmax ([1]; IV 1.7 mg/kg of prodrug, read-out: Prodrug Cmax (μM) IV) | bioavailability [1, 5] | Cmax ([1]; IV 2 mg/kg of prodrug, read-out: Prodrug Cmax (μM) IV) | Molecule | % F [1, 4]
6 | 1.34 µM | 1.88 µM | 0.27 µM | – | – | – | – | – | 0% | 23.2 µM | – | – | CN1CCN(CCC(=O)NS(=O)(=O)c2ccc(Nc3nc(N)n(C(=O)c4c(F)cccc4F)n3)cc2)CC1 [Compound 5, 4-[5-amino-1-(2,6-difluoro-benzoyl)-1H-[1,2,4]triazol-3-ylamino]-N-[3-(4-methyl-piperazin-1-yl)-propionyl]-benzenesulfonamide] | –
7 | 2.13 µM | 1.22 µM | 0.32 µM | 25.2 µM | – | 0% | – | – | – | – | – | – | CN(C)CC(=O)NS(=O)(=O)c1ccc(Nc2nc(N)n(C(=O)c3c(F)cccc3F)n2)cc1 [Compound 6, 4-[5-amino-1-(2,6-difluoro-benzoyl)-1H-[1,2,4]triazol-3-ylamino]-N-(2-dimethylamino-acetyl)-benzenesulfonamide] | –
8 | 1.55 µM | 1.65 µM | 0.12 µM | 20.5 µM | – | 0% | – | – | – | – | – | – | Nc1nc(Nc2ccc(S(=O)(=O)NC(=O)CCN3CCOCC3)cc2)nn1C(=O)c1c(F)cccc1F [Compound 7, 4-[5-amino-1-(2,6-difluoro-benzoyl)-1H-[1,2,4]triazol-3-ylamino]-N-(3-morpholin-4-yl-propionyl)-benzenesulfonamide] | –
9 | 0.47 µM | 0.47 µM | 0.06 µM | 72.2 µM | 0.19 µM | 0.17% | – | – | – | – | – | – | CCOC(=O)CCC(=O)NS(=O)(=O)c1ccc(Nc2nc(N)n(C(=O)c3c(F)cccc3F)n2)cc1 [Compound 8, 4-{4-[5-amino-1-(2,6-difluoro-benzoyl)-1H-[1,2,4]triazol-3-ylamino]-benzenesulfonylamino}-4-oxo-butyric acid ethyl ester] | –
10 | 4.69 µM | ≥ 100 µM | 0.44 µM | – | – | – | – | – | – | – | 0% | – | COCCOCCOCC(=O)NS(=O)(=O)c1ccc(Nc2nc(N)n(C(=O)c3c(F)cccc3F)n2)cc1 [Compound 9, 4-[5-amino-1-(2,6-difluoro-benzoyl)-1H-[1,2,4]triazol-3-ylamino]-N-{2-[2-(2-methoxy-ethoxy)-ethoxy]-acetyl}-benzenesulfonamide] | –
11 | 2.55 µM | 1.76 µM | 0.3 µM | – | – | – | – | – | – | – | 0% | 67.3 µM | COCCOCCOCC(=O)Nc1nc(Nc2ccc(S(N)(=O)=O)cc2)nn1C(=O)c1c(F)cccc1F [Compound 10, N-[2-(2,6-difluoro-benzoyl)-5-(4-sulfamoyl-phenylamino)-2H-[1,2,4]triazol-3-yl]-2-[2-(2-methoxy-ethoxy)-ethoxy]-acetamide] | –
